# In the oligonucleotide strings, read from the 5' end, every base follows the letter of its sugar. An asterisk marks phosphorothioate; unmarked linkages are phosphodiester. Other units and linkages are bracketed, terminal groups are in braces. A string of capitals states the bases alone. d = 2'-deoxy (DNA)
# Tested on: human preadipocyte
# Assay: Effect of antisense compound on adipocyte proliferation and differentiation (Adipo Red)
# Type: cell-based
# Details: 300 nM; human preadipocyte
# Experimental: First, human preadipocyte (Human Preadipocytes-sq POIETICS #PT-5020, Sanko Junyaku Co., Ltd.) was suspended in growth medium (#PT-8200, Sanko Junyaku Co., Ltd.), and after adding the suspension to a 96 well culture plate at 1×10^4 cells/well/100 μL, the cells were cultured overnight at 37° C. in the presence of 5% CO2.
# The preadipocyte was cultured overnight, and after washing the preadipocyte twice with serum-free DMEM, Opti-MEM was added at 80 μL/well.
# Gene transfection reagent Lipofectin was diluted with Opti-MEM to 20 μg/mL, and the dilution was allowed to stand at room temperature for 30 minutes. Next, the antisense oligodeoxynucleotide synthesized as described above was heated at 90° C. for 3 minutes, and after quenching on ice, diluted with Opti-MEM to a concentration 10 times higher than the final concentration. Equal amounts of the Lipofectin in Opti-MEM and the antisense oligodeoxynucleotide in Opti-MEM were mixed, and the mixture was incubated at room temperature for 15 minutes and added to 96 well plate at 20 μL/well. After incubating at 37° C. for 4 hours in the presence of 5% CO2, it was used for examination as described below.
# The differentiation medium was prepared by using growth medium (#PT-8200, Sanko Junyaku Co., Ltd.) and supplement kit (PGM Single Quots, #PT-9500, Sanko Junyaku Co., Ltd.) according to the instruction of the kit. Next, the culture supernatant containing the Lipofectin was removed from the 96 well plate prepared in the above (2), and the plate was washed twice with serum-free DMEM, and the differentiation medium prepared as described above was added at 100 μL/well. The plate was then incubated at 37° C. for 5 days to 15 days in the presence of 5% CO2.
# Accumulation of the neutral fat in the adipocyte was determined by fluorometry using Adipo Red stain.
# After taking the 96 well plate out of the CO2 incubator, the plate was allowed to stand until it reached room temperature. The plate was centrifuged at 300 g (1200 rpm) for 10 minutes at room temperature to remove the medium. Next, after gently washing with PBS (SIGMA) at 200 μL/well, PBS was added to the well at 200 μL/well. Next, Adipo Red Assay Reagent (Adipo Red, Cat. #PT-7009, Lot.3F0497, A Cambrex Company) was added at 5 μL/well, and the plate was allowed to stand at room temperature for at least 10 minutes to thereby stain the neutral fat accumulated in the adipocyte. The fat accumulation was determined by measuring fluorescence intensity in a fluorometer at an excitation wavelength of 485 nm and an emission wavelength of 535 nm.
# The suppression rate of the adipocyte differentiation was calculated by converting the fluorescence intensity of the well transfected with the antisense compound in relation to the fluorescence intensity of the well without transfection with the antisense compound which was assumed as 100%. The result was rated “+” when the suppression rate was at least 25%, “++” when the suppression rate was at least 50%, and “+++” when the suppression rate was at least 75%.
substance,measurement,value
2 (dC*dT*dG*dG*dT*dT*dA*dA*dT*dG*dG*dT*dT*dC*dA*dC*dA*dT*dC*dT) [compound 2],Supression of adipose differentiation 300 nM,++ (“++” when the suppression rate was at least 50%)

# From patent publication US20080292619A1, “Pharmaceutical Composition Containing Meltrin Antagonist” (MOCHIDA PHARMACEUTICAL CO., LTD., priority 2004, published 2008)
